Data from publication PMC3473359, “Formation of a heterooctameric complex between aspartate α-decarboxylase and its cognate activating factor, PanZ, is CoA-dependent” (Biochemical and Biophysical Research Communications, 2012).

Columns and labels:
PanZ [1] = target: T1, PanZ (Escherichia coli, UniProt P37613); assay: isothermal titration calorimetry; format: binding
T1 construct: His-tagged PanZ from pCA24N(-GFP)-his-panZ, expressed in E. coli delta-panD delta-panZ (DE3); Ni-NTA and Superdex 75; monomer; copurifies partly with CoA
T1 sequence (P37613 1-127): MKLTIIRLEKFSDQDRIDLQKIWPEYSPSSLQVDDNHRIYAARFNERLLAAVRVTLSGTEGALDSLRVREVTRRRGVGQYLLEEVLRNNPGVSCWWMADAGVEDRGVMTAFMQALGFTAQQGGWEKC
Excerpt: isothermal titration calorimetry on PanZ

PanZ [2] = target: T1, PanZ; assay: isothermal titration calorimetry; format: binding; conditions: pH 7.4, 25 °C; sample contains copurified CoA

Kd (PanZ [1]) [µM] | SMILES | isothermal titration calorimetry (PanZ [2])
1.95 ± 0.16 | CC(C)(COP(=O)(O)OP(=O)(O)OC[C@H]1O[C@@H](n2cnc3c(N)ncnc32)[C@H](O)[C@@H]1OP(=O)(O)O)[C@@H](O)C(=O)NCCC(=O)NCCS [CoA] | 
 | CC(=O)SCCNC(=O)CCNC(=O)[C@H](O)C(C)(C)COP(=O)(O)OP(=O)(O)OC[C@H]1O[C@@H](n2cnc3c(N)ncnc32)[C@H](O)[C@@H]1OP(=O)(O)O [acetyl CoA] | titration of CoA and AcCoA into PanZ showed binding
